# Experimental data reported in patent US20260146035A1, “FUSED BICYCLIC COMPOUNDS AND THEIR USE AS MER AND AXL INHIBITORS” (DONG-A ST CO., LTD., priority 2022, published 2026).
# Where two headings read alike, the source gives them in different places.
# Columns and labels:
# human AXL (473-end) = biological target: T1, human AXL (473-end) (Homo sapiens, UniProt P30530); assay: HTRF kinase activity biochemical assay, AXL
# T1 construct: human AXL (473-end); purchased SignalChem, Canada
# T1 sequence (P30530 473-894 limits assumed): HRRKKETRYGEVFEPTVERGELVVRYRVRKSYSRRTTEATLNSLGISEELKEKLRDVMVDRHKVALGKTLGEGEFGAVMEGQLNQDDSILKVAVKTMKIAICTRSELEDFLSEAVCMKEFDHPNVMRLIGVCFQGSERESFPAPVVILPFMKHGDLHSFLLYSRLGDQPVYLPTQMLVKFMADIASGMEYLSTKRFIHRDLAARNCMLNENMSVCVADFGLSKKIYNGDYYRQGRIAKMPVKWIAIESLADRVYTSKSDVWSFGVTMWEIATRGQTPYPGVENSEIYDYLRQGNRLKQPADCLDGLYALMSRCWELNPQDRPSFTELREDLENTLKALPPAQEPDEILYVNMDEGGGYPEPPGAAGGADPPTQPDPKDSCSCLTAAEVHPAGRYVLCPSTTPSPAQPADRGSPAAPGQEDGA
# human MER (528-end) = biological target: T2, human MER (528-end) (Homo sapiens, UniProt Q12866); assay: HTRF kinase activity biochemical assay, MER
# T2 construct: human MER (528-end); purchased Camnabio, Japan
# T2 sequence (Q12866 528-999 limits assumed): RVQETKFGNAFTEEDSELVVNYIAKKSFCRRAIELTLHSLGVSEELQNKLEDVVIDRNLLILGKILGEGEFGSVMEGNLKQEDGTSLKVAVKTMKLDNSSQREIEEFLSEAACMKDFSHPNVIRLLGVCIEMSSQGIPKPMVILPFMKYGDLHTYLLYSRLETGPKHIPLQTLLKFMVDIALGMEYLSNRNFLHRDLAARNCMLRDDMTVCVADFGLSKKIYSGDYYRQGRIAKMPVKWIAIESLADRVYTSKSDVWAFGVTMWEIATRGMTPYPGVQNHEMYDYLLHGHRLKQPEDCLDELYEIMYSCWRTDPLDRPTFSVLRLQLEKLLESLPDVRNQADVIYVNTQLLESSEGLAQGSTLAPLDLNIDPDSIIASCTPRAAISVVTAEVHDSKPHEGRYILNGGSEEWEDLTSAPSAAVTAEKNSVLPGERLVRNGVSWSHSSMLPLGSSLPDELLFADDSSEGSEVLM
# [1] = tested on: phospho-MerTK in BaF3.MerTK tumors; assay: In vivo Ba/F3 pMER ALISA assay; conditions: orally; for % inhibition: 50 milligrams per kilogram, single dose, tumors harvested 4 hours after, phospho-MerTK normalized to total MerTK
# Method: BaF3.MerTK tumor cells were mixed with 50% Matrigel (BD, Franklin Lakes, NJ). […] Tumors were allocated into dose groups at 10 to 11 days post tumor cell inoculation, when they were roughly 250-400 mm^3 in size. Test compounds were formulated in 10% ethanol, 30% PEG-400, and 60% Phosal-50PG, for oral dosing at 0.2 mL per dose per mouse. Plasma and tumors were harvested 4 hours after a single dose. Ba/F3 tumors were harvested into 2 mL Precellys CKmix tubes, snap frozen in liquid nitrogen, and stored at −80° C. overnight. […] Precellys tubes were then centrifuged at >18,000 g for 20 minutes at 4° C. and the supernatant was collected on ice. The lysate was then centrifuged again at >18,000 g for 10 minutes at 4° C. to remove any residual debris. […] Plates were then frozen at −80° C. overnight.
# human TYRO3 (455-end) = biological target: T3, human TYRO3 (455-end) (Homo sapiens, UniProt Q06418); assay: HTRF kinase activity biochemical assay, TYRO3; conditions: 10 μM ATP, 30 minutes pre-incubation; read-out: HTRF TYRO IC50
# T3 construct: TYRO3 (455-end); purchased SignalChem, Canada
# T3 sequence (Q06418 455-890 limits assumed): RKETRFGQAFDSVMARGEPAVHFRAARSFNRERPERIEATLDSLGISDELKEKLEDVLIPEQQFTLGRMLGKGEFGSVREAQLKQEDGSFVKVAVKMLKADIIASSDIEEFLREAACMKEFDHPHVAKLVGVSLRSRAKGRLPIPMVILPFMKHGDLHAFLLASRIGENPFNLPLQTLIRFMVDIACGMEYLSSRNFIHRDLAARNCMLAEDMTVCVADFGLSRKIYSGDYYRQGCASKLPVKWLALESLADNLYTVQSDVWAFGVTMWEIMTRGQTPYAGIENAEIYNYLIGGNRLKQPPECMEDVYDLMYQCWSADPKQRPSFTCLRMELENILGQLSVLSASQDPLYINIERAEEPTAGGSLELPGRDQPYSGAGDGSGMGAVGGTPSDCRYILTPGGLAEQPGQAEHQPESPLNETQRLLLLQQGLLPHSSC
# [2] = 10 μM ATP, 30 minutes pre-incubation
# [3] = 10 μM ATP, 30 minutes pre-incubation, read-out: HTRF MERTK IC50
SMILES,IC50 (human AXL (473-end); [2]) [nM],IC50 (human MER (528-end); [3]) [nM],% inhibition [1] [%],IC50 (human TYRO3 (455-end)) [nM],IC50 (human AXL (473-end); in vitro) [nM],"IC50 (human MER (528-end); in vitro, read-out: HTRF MerTK IC50) [nM]",% inhibition in the in vivo Ba/F3 pMer ALISA Assay ([1]; as shown in Tables 3 and 4: 50 milligrams per kilogram) [%]
"CN1CCN(C2CCCc3cc(-c4ccc(CO[C@H]5CCC[C@@H]5NC(=O)c5cc(-c6cnn(C)c6)cnc5N)cc4)ccc32)CC1 (stereo partly drawn) [Example 120, 2-amino-N-[(1S,2S)-2-({4-[5-(4-methylpiperazin-1-yl)-5,6,7,8-tetrahydronaphthalen-2-yl]phenyl}methoxy)cyclopentyl]-5-(1-methyl-1H-pyrazol-4-yl)pyridine-3-carboxamide]",< 10,< 10,67,10 to 100,–,–,–
"Cn1cc(-c2cnc(N)c(C(=O)N[C@H]3CCC[C@@H]3OCc3ccc(-c4ccc5c(c4)CC[C@@H]5N4CCN5C[C@H](O)C[C@H]5C4)cc3)c2)cn1 [Example 161, 2-amino-N-{(1S,2S)-2-[(4-{(1S)-1-[(7R,8aS)-7-hydroxyhexahydropyrrolo[1,2-a]pyrazin-2 (1H)-yl]-2,3-dihydro-1H-inden-5-yl}phenyl)methoxy]cyclopentyl}-5-(1-methyl-1H-pyrazol-4-yl)pyridine-3-carboxamide]",< 10,< 10,85,10 to 100,–,–,–
"COc1ccc(-c2cnc(N)c(C(=O)N[C@H]3CCC[C@@H]3OCc3ccc(-c4ccc5c(c4)CC[C@@H]5N4CCN(CCO)CC4)cc3)c2)cn1 [Example 151, 6-amino-N-{(1S,2S)-2-[(4-{(1S)-1-[4-(2-hydroxyethyl)piperazin-1-yl]-2,3-dihydro-1H-inden-5-yl}phenyl)methoxy]cyclopentyl}-6′-methoxy[3,3′-bipyridine]-5-carboxamide]",< 10,< 10,66,10 to 100,–,–,–
"CN1CCN([C@H]2CC(C)(C)c3cc(-c4ccc(CO[C@H]5CCC[C@@H]5NC(=O)c5cc(-c6cnn(C)c6)cnc5N)cc4)ccc32)CC1 [Example 144, 2-amino-N-[(1S,2S)-2-({4-[(1S)-3,3-dimethyl-1-(4-methylpiperazin-1-yl)-2,3-dihydro-1H-inden-5-yl]phenyl}methoxy)cyclopentyl]-5-(1-methyl-1H-pyrazol-4-yl)pyridine-3-carboxamide]",< 10,< 10,93,< 10,–,–,–
"Cn1cc(-c2cnc(N)c(C(=O)N[C@H]3CCC[C@@H]3OCc3ccc(-c4ccc5c(c4)C(C)(C)C[C@@H]5N4CCN(CCO)CC4)cc3)c2)cn1 [Example 103, 2-amino-N-{(1S,2S)-2-[(4-{(1S)-1-[4-(2-hydroxyethyl)piperazin-1-yl]-3,3-dimethyl-2,3-dihydro-1H-inden-5-yl}phenyl)methoxy]cyclopentyl}-5-(1-methyl-1H-pyrazol-4-yl)pyridine-3-carboxamide]",< 10,< 10,74,< 10,< 10,< 10,74
"CN1CCN(C2CC(C)(C)c3cc(-c4ccc(CO[C@H]5CCC[C@@H]5NC(=O)c5cc(-c6cnn(C)c6)cnc5N)cc4)ccc32)CC1 (stereo partly drawn) [Example 93, 2-amino-N-[(1S,2S)-2-({4-[3,3-dimethyl-1-(4-methylpiperazin-1-yl)-2,3-dihydro-1H-inden-5-yl]phenyl}methoxy)cyclopentyl]-5-(1-methyl-1H-pyrazol-4-yl)pyridine-3-carboxamide]",< 10,< 10,53,< 10,–,–,–
"CC1(C)C[C@H](N2CCN(C[C@H](O)CO)CC2)c2ccc(-c3ccc(CO[C@H]4CCC[C@@H]4NC(=O)c4cc(-c5cccnc5F)cnc4N)cc3)cc21 [Example 168, 6-amino-N-[(1S,2S)-2-({4-[(1S)-1-{4-[(2S)-2,3-dihydroxypropyl]piperazin-1-yl}-3,3-dimethyl-2,3-dihydro-1H-inden-5-yl]phenyl}methoxy)cyclopentyl]-2′-fluoro[3,3′-bipyridine]-5-carboxamide]",< 10,< 10,74,10 to 100,–,–,–
"Nc1ncc(-c2cccnc2F)cc1C(=O)N[C@H]1CCC[C@@H]1OCc1ccc(-c2ccc3c(c2)CC[C@@H]3N2CCN3C[C@H](O)C[C@H]3C2)cc1 [Example 160, 6-amino-2′-fluoro-N-{(1S,2S)-2-[(4-{(1S)-1-[(7R,8aS)-7-hydroxyhexahydropyrrolo[1,2-a]pyrazin-2 (1H)-yl]-2,3-dihydro-1H-inden-5-yl}phenyl)methoxy]cyclopentyl}[3,3′-bipyridine]-5-carboxamide]",< 10,< 10,75,10 to 100,–,–,–
